In patent US7740463B2, “Pressurised metered dose inhalers (MDI)” (Chiesi Farmaceutici S.p.A., priority 1998, dated 2010):
Values joined by “and” are separate entries in the source; they are usually repeats but may differ in a detail not shown here. Identical values can stand only once.

Experiments:
[1] = Effect of different acids on chemical stability of the composition of Example 1 in epoxy-phenol resin (4) coated cans; assay type: physicochemical; conditions: epoxy-phenol (4) coated cans
Protocol: The effect of different acids on the chemical stability of the composition of Example 1 was studied.
The stability of the compositions was tested after 1, 2 and 5 months storage at 40° C. in epoxy-phenol resin (4) coated cans.

[2] = Fine particle dose of dexbudesonide solution compositions, Andersen Cascade Impactor; assay type: physicochemical; conditions: for MMAD: low volatility compound 0.9% (w/w); for FPF: Fine particle dose/Delivered dose × 100; for Delivered dose: ex actuator; for FPD: particles lower than 4.7 μm, average of 10 shots; for Metered dose: sum of delivered dose and actuator residue
Protocol: The fine particle dose (FPD: weight of particles having an aerodynamic diameter lower than 4.7 μm) of dexbudesonide solution compositions in HFA 134a or HFA 227, prepared following the examples 4 and 5, was determined.
The experiments were performed using the Andersen Cascade Impactor and the data obtained are average values from 10 shots.
The FPD gives a direct measure of the mass of particles within the specified size range and is closely related to the efficacy of the product.

[3] = Chemical stability of dexbudesonide HFA 134a composition of Example 4 in epoxy-phenol lacquered aluminium cans (HPLC, epimeric distribution); assay type: physicochemical
Protocol: A composition containing 48 mg of dexbudesonide (200 μg/dose), 15% (w/w) ethanol, 1.3% (w/w) glycerol in HFA 134a to 12 ml can was distributed in epoxy-phenol lacquered aluminium cans and was stored at 40° C.

[4] = Chemical stability of dexbudesonide HFA 227 compositions of Example 5 in anodised aluminium cans (HPLC, epimeric distribution); assay type: physicochemical; conditions: for % Residual dexbudesonide / % residual dexbudesonide relative to t = 0: HFA 227, anodised aluminium cans
Protocol: Compositions containing 7.2, 12, 16.8 mg of dexbudesonide (corresponding to 30, 50 and 70 μg/dose respectively), ethanol, 0.9 (w/w) PEG 400 or isopropyl myristate (IPM) in HFA 227 to 12 ml can was distributed in aluminium anodised cans and was stored 70 days at 50° C.

[5] = Chemical stability of flunisolide HFA 134a composition of Example 7 in cans of different types (percent drug remaining, HPLC); assay type: physicochemical
Protocol: A composition containing 60 mg of flunisolide (250 μg/dose), […], 1% (w/w) glycerol in HFA 134a to 12 ml/can was distributed in anodised aluminium, glass cans or in cans having different internal coatings and were stored for 41 days at 50° C.

[6] = as above; assay type: physicochemical; remark: listed apart in the source
[7] = flunisolide/ethanol/HFA compositions of WO 95/17195, Table 8 of that application; cited from earlier work
[8] = HFA 134a, 60 μg/shot, ethanol 8% (w/w), IPM 0.9% (w/w)
[9] = HFA 227, 63 μg/shot, ethanol 7% (w/w), IPM 0.9% (w/w)
[10] = HFA 227, 63 μg/shot, ethanol 7% (w/w), PEG 400 0.9% (w/w)
[11] = metered dose 30 μg, ethanol 5% (w/w), IPM 0.9% (w/w), t = 70 days at 50° C.
[12] = metered dose 30 μg, ethanol 5% (w/w), PEG 400 0.9% (w/w), t = 70 days at 50° C.
[13] = metered dose 50 μg, ethanol 8% (w/w), IPM 0.9% (w/w), t = 70 days at 50° C.
[14] = metered dose 50 μg, ethanol 8% (w/w), PEG 400 0.9% (w/w), t = 70 days at 50° C.
[15] = metered dose 70 μg, ethanol 7% (w/w), IPM 0.9% (w/w), t = 70 days at 50° C.
[16] = metered dose 70 μg, ethanol 7% (w/w), PEG 400 0.9% (w/w), t = 70 days at 50° C.
[17] = can: Anodised aluminum, t = 41 days at 50° C.
[18] = can: Epoxy phenol resin (2), t = 41 days at 50° C.
[19] = can: Epoxy phenol resin (3), t = 41 days at 50° C.
[20] = can: Anodised aluminum, t = 93 days (50° C. per title)
[21] = can: Epoxy phenol resin (1), t = 41 days at 50° C.
[22] = can: Epoxy phenol resin (1), t = 93 days (50° C. per title)
[23] = can: Epoxy phenol resin (2), t = 93 days (50° C. per title)
[24] = can: Epoxy phenol resin (3), t = 93 days (50° C. per title)

CC(C)[N+]1(C)[C@@H]2CC[C@H]1CC(OC(=O)C(CO)c1ccccc1)C2.[Br-] (some centres unmarked) [ipratropium bromide]
% RESIDUAL IPBr ([1]; acid: Ascorbic, t = 0): 119% | % RESIDUAL IPBr ([1]; acid: Ascorbic, t = 1 month at 40° C.): 113% | % RESIDUAL IPBr ([1]; acid: Ascorbic, t = 2 months at 40° C.): 112% | % RESIDUAL IPBr ([1]; acid: Ascorbic, t = 5 months at 40° C.): 110% | % RESIDUAL IPBr ([1]; acid: Citric (0.07% w/w), t = 1 month at 40° C.): 98% | % RESIDUAL IPBr ([1]; acid: Citric (0.3% w/w), t = 2 months at 40° C.): 100% | % RESIDUAL IPBr ([1]; acid: Citric (0.6% w/w), t = 0): 98% | % RESIDUAL IPBr ([1]; acid: Citric (0.6% w/w), t = 1 month at 40° C.): 98% | % RESIDUAL IPBr ([1]; acid: Hydrochloric (4 μl-1 N), t = 0): 101% | % RESIDUAL IPBr ([1]; acid: Hydrochloric (4 μl-1 N), t = 1 month at 40° C.): 100% | % RESIDUAL IPBr ([1]; acid: Hydrochloric (4 μl-1 N), t = 2 months at 40° C.): 104% | % RESIDUAL IPBr ([1]; acid: Hydrochloric (10 μl-1 N), t = 0): 101% | % RESIDUAL IPBr ([1]; acid: Hydrochloric (10 μl-1 N), t = 1 month at 40° C.): 98% | % RESIDUAL IPBr ([1]; acid: Hydrochloric (10 μl-1 N), t = 2 months at 40° C.): 98% | % RESIDUAL IPBr ([1]; acid: Hydrochloric (20 μl-1 N), t = 0): 100% | % RESIDUAL IPBr ([1]; acid: Hydrochloric (20 μl-1 N), t = 2 months at 40° C.): 98% | % RESIDUAL IPBr ([1]; acid: None, t = 2 months at 40° C.): 98%

CCC[C@@H]1O[C@@H]2C[C@H]3[C@@H]4CCC5=CC(=O)C=C[C@]5(C)[C@H]4[C@@H](O)C[C@]3(C)[C@]2(C(=O)CO)O1 [dexbudesonide]
MMAD ([2]; HFA 134a solution formulation, 14.4 mg/can (60 μg/shot), ethanol 8% (w/w)): 2.0 μm | FPF [2, 8]: 73.6% and 77.4% | Delivered dose [2, 8]: 54.2 µg and 50.9 µg | FPD [2, 8]: 39.9 µg and 39.4 µg | Metered dose [2, 8]: 57.9 µg and 53.2 µg | FPF [2, 9]: 75.5% | Delivered dose [2, 9]: 59.7 µg | FPD [2, 9]: 45.0 µg | Metered dose [2, 9]: 63.9 µg | FPF [2, 10]: 78.9% | Delivered dose [2, 10]: 61.5 µg | FPD [2, 10]: 48.5 µg | Metered dose [2, 10]: 65.5 µg | MMAD ([2]; HFA 227 solution formulation, 15.12 mg/can (63 μg/shot), ethanol 7% (w/w)): 2.0 μm | percent drug remaining ([3]; 200 μg/dose, 15% (w/w) ethanol, 1.3% (w/w) glycerol, HFA 134a, 8 months at 40° C., average of two tests): 95.4% | epimeric distribution ([3]; Example 4 composition, stored at 40° C.): no transfer from the 22R to the 22S epimer | epimeric distribution ([4]; Example 5 compositions, anodised aluminium cans, 70 days at 50° C.): no transfer from the 22R to the 22S epimer | % Residual dexbudesonide ([4]; metered dose 30 μg, ethanol 5% (w/w), IPM 0.9% (w/w), t = 0 days): 98.1% | % Residual dexbudesonide [4, 11]: 96.8% | % residual dexbudesonide relative to t = 0 [4, 11]: (98.7) % | % Residual dexbudesonide ([4]; metered dose 30 μg, ethanol 5% (w/w), PEG 400 0.9% (w/w), t = 0 days): 95.8% | % Residual dexbudesonide [4, 12]: 95.8% | % residual dexbudesonide relative to t = 0 [4, 12]: (100) % | % Residual dexbudesonide ([4]; metered dose 50 μg, ethanol 8% (w/w), IPM 0.9% (w/w), t = 0 days): 98.0% | % Residual dexbudesonide [4, 13]: 99.4% | % residual dexbudesonide relative to t = 0 [4, 13]: (101) % | % Residual dexbudesonide ([4]; metered dose 50 μg, ethanol 8% (w/w), PEG 400 0.9% (w/w), t = 0 days): 99.0% | % Residual dexbudesonide [4, 14]: 98.0% | % residual dexbudesonide relative to t = 0 [4, 14]: (98.9) % | % Residual dexbudesonide ([4]; metered dose 70 μg, ethanol 7% (w/w), IPM 0.9% (w/w), t = 0 days): 100.4% | % Residual dexbudesonide [4, 15]: 96.3% | % residual dexbudesonide relative to t = 0 [4, 15]: (96.0) % | % Residual dexbudesonide ([4]; metered dose 70 μg, ethanol 7% (w/w), PEG 400 0.9% (w/w), t = 0 days): 95.7% | % Residual dexbudesonide [4, 16]: 93.75% | % residual dexbudesonide relative to t = 0 [4, 16]: (98.0) %

CC1(C)O[C@@H]2C[C@H]3[C@@H]4C[C@H](F)C5=CC(=O)C=C[C@]5(C)[C@H]4[C@@H](O)C[C@]3(C)[C@]2(C(=O)CO)O1 [flunisolide]
% RESIDUAL FLUNISOLIDE ([5]; can: Anodised aluminum, t = 0): 101.6% | % RESIDUAL FLUNISOLIDE [5, 17]: 100.4% | % RESIDUAL FLUNISOLIDE RELATIVE TO t = 0 [5, 17]: (98.8) % | % RESIDUAL FLUNISOLIDE ([5]; can: Epoxy phenol resin (1), t = 0): 98.4% | % RESIDUAL FLUNISOLIDE ([5]; can: Epoxy phenol resin (2), t = 0): 101.9% | % RESIDUAL FLUNISOLIDE [5, 18]: 99.7% | % RESIDUAL FLUNISOLIDE RELATIVE TO t = 0 [5, 18]: (97.8) % | % RESIDUAL FLUNISOLIDE [5, 19]: 99.2% | % RESIDUAL FLUNISOLIDE [6, 20]: 100.7% | % RESIDUAL FLUNISOLIDE RELATIVE TO t = 0 [6, 20]: (99.1) % | % RESIDUAL FLUNISOLIDE [6, 21]: 99.2% | % RESIDUAL FLUNISOLIDE RELATIVE TO t = 0 [6, 21]: (101) % | % RESIDUAL FLUNISOLIDE [6, 22]: 101.4% | % RESIDUAL FLUNISOLIDE RELATIVE TO t = 0 [6, 22]: (103) % | % RESIDUAL FLUNISOLIDE [6, 23]: 101.9% | % RESIDUAL FLUNISOLIDE RELATIVE TO t = 0 [6, 23]: (100) % | % RESIDUAL FLUNISOLIDE ([6]; can: Epoxy phenol resin (3), t = 0): 101.7% | % RESIDUAL FLUNISOLIDE RELATIVE TO t = 0 [6, 19]: (97.5) % | % RESIDUAL FLUNISOLIDE [6, 24]: 101.2% | % RESIDUAL FLUNISOLIDE RELATIVE TO t = 0 [6, 24]: (99.6) % | % RESIDUAL FLUNISOLIDE ([6]; can: Glass type III, t = 93 days (50° C. per title)): 97.5% | decomposition in containers [7]: decomposes only in plastic cans
